Converted amounts (≈) assume the structure as drawn.
Assays:
[1] = system: hRV-9; assay: Rhinovirus type 9 antiviral assay in Hela Rh cells, MTS readout; format: cell-based, Human rhinovirus; details: Human rhinovirus sp., HRV9, HeLa Rh, Hela Rh cells; read-out: hRV-9 EC50
[2] = system: hRV-72; assay: Rhinovirus type 72 antiviral assay in Hela Rh cells, MTS readout; format: cell-based, Human rhinovirus; details: Human rhinovirus sp., HRV72, HeLa Rh, Hela Rh cells; read-out: hRV-72 EC50
[3] = system: hRV-41; assay: Rhinovirus type 41 antiviral assay in Hela Rh cells, MTS readout; format: cell-based, Human rhinovirus; details: Human rhinovirus sp., HRV41, HeLa Rh, Hela Rh cells; read-out: hRV-41 EC50
[4] = system: hRV-45; assay: Rhinovirus type 45 antiviral assay in Hela Rh cells, MTS readout; format: cell-based, Human rhinovirus; details: Human rhinovirus sp., HRV45, HeLa Rh, Hela Rh cells; read-out: hRV-45 EC50
[5] = system: hRV-39; assay: Rhinovirus type 39 antiviral assay in Hela Rh cells, MTS readout; format: cell-based, Human rhinovirus; details: Human rhinovirus sp., HRV39, HeLa Rh, Hela Rh cells; read-out: hRV-39 EC50
[6] = system: hRV-42; assay: Rhinovirus type 42 antiviral assay in Hela Rh cells, MTS readout; format: cell-based, Human rhinovirus; details: Human rhinovirus sp., HRV42, HeLa Rh, Hela Rh cells; read-out: hRV-42 EC50
[7] = system: hRV-85; assay: Rhinovirus type 85 antiviral assay in Hela Rh cells, MTS readout; format: cell-based, Human rhinovirus; details: Human rhinovirus sp., HRV85, HeLa Rh, Hela Rh cells; read-out: hRV-85 EC50
[8] = system: hRV-29; assay: Rhinovirus type 29 antiviral assay in Hela Rh cells, MTS readout; format: cell-based; details: Human rhinovirus sp., HRV29, HeLa Rh, Hela Rh cells; read-out: hRV-29 EC50
[9] = system: hRV-63; assay: Rhinovirus type 63 antiviral assay in Hela Rh cells, MTS readout; format: cell-based, Human rhinovirus; details: Human rhinovirus sp., HRV63, HeLa Rh, Hela Rh cells; read-out: hRV-63 EC50
[10] = Cytostatic/cytotoxic effect in Hela Rh cells (rhinovirus methodology, MTS); details: human, CC50, Hela Rh cells
[11] = system: hRV-70; assay: Rhinovirus type 70 antiviral assay in Hela Rh cells, MTS readout; format: cell-based, Human rhinovirus; details: Human rhinovirus sp., HRV70, HeLa Rh, Hela Rh cells; read-out: hRV-70 EC50
[12] = system: hRV-86; assay: Rhinovirus type 86 antiviral assay in Hela Rh cells, MTS readout; format: cell-based, Human rhinovirus; details: Human rhinovirus sp., HRV86, HeLa Rh, Hela Rh cells; read-out: hRV-86 EC50
[13] = system: hRV-14; assay: Rhinovirus type 14 antiviral assay in Hela Rh cells, MTS readout; format: cell-based, Human rhinovirus; details: Rhinovirus B, HRV14, HeLa Rh, Hela Rh cells; read-out: hRV-14 EC50
[14] = system: hRV-15; assay: Rhinovirus type 15 antiviral assay in Hela Rh cells, MTS readout; format: cell-based, Human rhinovirus; details: Human rhinovirus sp., HRV15, HeLa Rh, Hela Rh cells; read-out: hRV-15 EC50
[15] = system: hRV-2; assay: Rhinovirus type 2 antiviral assay in Hela Rh cells, MTS readout; format: cell-based, Human rhinovirus; details: Rhinovirus A, HRV2, HeLa Rh, Hela Rh cells; read-out: hRV-2 EC50

| Structure (SMILES) | EC50 [1] [µg/mL] | EC50 [2] [µg/mL] | EC50 [3] [µg/mL] | EC50 [4] [µg/mL] | EC50 [5] [µg/mL] | EC50 [6] [µg/mL] | EC50 [7] [µg/mL] | EC50 [8] [µg/mL] | EC50 [9] [µg/mL] | CC50 [10] [µg/mL] | EC50 [11] [µg/mL] | EC50 [12] [µg/mL] | EC50 [13] [µg/mL] | EC50 [14] [µg/mL] | EC50 [15] [µg/mL] |
| --- | --- | --- | --- | --- | --- | --- | --- | --- | --- | --- | --- | --- | --- | --- | --- |
| CCCCCc1nc2c(N3CCN(C(=O)COc4ccc(Cl)cc4)CC3)nc(N)nc2s1 [Example 297, 1-(4-(5-amino-2-pentylthiazolo[5,4-d]pyrimidin-7-yl)piperazin-1-yl)-2-(4-chlorophenoxy)ethanone] | 0.14 (≈ 0.295 µM) | 2.46 (≈ 5.18 µM) | 1.06 (≈ 2.23 µM) | 2.29 (≈ 4.82 µM) | 0.08 (≈ 0.168 µM) | 4.45 (≈ 9.37 µM) | 1.01 (≈ 2.13 µM) | 0.13 (≈ 0.274 µM) | 0.53 (≈ 1.12 µM) | > 50 | 4.31 (≈ 9.07 µM) | 2.42 (≈ 5.09 µM) | 0.4 (≈ 0.842 µM) | 0.38 (≈ 0.8 µM) |  |
| COc1ccc(OCC(=O)N2CCN(c3nc(N)nc4sc(CCc5ccc(OC)c(OC)c5)nc34)CC2)cc1 [Example 257, 1-(4-(5-amino-2-(3,4-dimethoxyphenethyl)thiazolo[5,4-d]pyrimidin-7-yl)piperazin-1-yl)-2-(4-methoxyphenoxy)ethanone] | 3.69 (≈ 6.53 µM) | 5.95 (≈ 10.5 µM) | 31.1 (≈ 55.1 µM) | 30.8 (≈ 54.6 µM) | 2.26 (≈ 4 µM) | 5.09 (≈ 9.01 µM) | 8.05 (≈ 14.3 µM) | 14.9 (≈ 26.3 µM) | 26.4 (≈ 46.8 µM) | > 50 | 7.1 (≈ 12.6 µM) | 4.79 (≈ 8.48 µM) | 2.32 (≈ 4.11 µM) | 46.2 (≈ 81.9 µM) | 3.01 (≈ 5.33 µM) |
| COc1ccc(OCC(=O)N2CCN(c3nc(N)nc4sc(Cc5ccc(F)cc5)nc34)CC2)cc1 [Example 230, 1-(4-(5-amino-2-(4-fluorobenzyl)thiazolo[5,4-d]pyrimidin-7-yl)piperazin-1-yl)-2-(4-methoxyphenoxy)ethanone] | 0.09 (≈ 0.177 µM) | 8.55 (≈ 16.8 µM) | 0.58 (≈ 1.14 µM) | 1.13 (≈ 2.22 µM) | 0.04 (≈ 0.0787 µM) | < 0.39 | 0.61 (≈ 1.2 µM) | 0.04 (≈ 0.0787 µM) | 0.54 (≈ 1.06 µM) | > 50 | 2.37 (≈ 4.66 µM) | 2.36 (≈ 4.64 µM) | 0.39 (≈ 0.767 µM) | 0.38 (≈ 0.747 µM) |  |
| Nc1nc(N2CCN(C(=O)COc3cccc(Cl)c3)CC2)c2nc(CCc3ccc(F)cc3)sc2n1 [Example 228, 1-(4-(5-amino-2-(4-fluorophenethyl)thiazolo[5,4-d]pyrimidin-7-yl)piperazin-1-yl)-2-(3-chlorophenoxy)ethanone] | 1.16 (≈ 2.2 µM) | > 50 | > 50 |  | 1.28 (≈ 2.43 µM) |  | 4.14 (≈ 7.86 µM) | 1.38 (≈ 2.62 µM) | 13.8 (≈ 26.1 µM) | > 50 | 10 (≈ 19.1 µM) | 4.86 (≈ 9.22 µM) | 9.21 (≈ 17.5 µM) | 43.9 (≈ 83.2 µM) | 1.27 (≈ 2.41 µM) |
| COc1ccc(CCc2nc3c(N4CCN(C(=O)COc5ccc(Br)cc5)CC4)nc(N)nc3s2)cc1OC [Example 256, 1-(4-(5-amino-2-(3,4-dimethoxyphenethyl)thiazolo[5,4-d]pyrimidin-7-yl)piperazin-1-yl)-2-(4-bromophenoxy)ethanone] | 4.05 (≈ 6.6 µM) | 6.89 (≈ 11.2 µM) | > 50 | > 50 | 1.8 (≈ 2.93 µM) | 5.22 (≈ 8.51 µM) | 9.48 (≈ 15.5 µM) | 4.06 (≈ 6.62 µM) | 32.9 (≈ 53.6 µM) | > 50 | 5.97 (≈ 9.73 µM) | 4.86 (≈ 7.92 µM) | 2.81 (≈ 4.58 µM) | > 50 | 2.07 (≈ 3.37 µM) |
| Cc1ccc(-c2nc3c(N4CCN(C(=O)COc5ccc(Cl)cc5)CC4)nc(N)nc3s2)cc1 [Example 295, 1-(4-(5-amino-2-p-tolylthiazolo[5,4-d]pyrimidin-7-yl)piperazin-1-yl)-2-(4-chlorophenoxy)ethanone] |  |  |  |  |  |  |  |  |  | > 50 |  |  |  |  |  |
| COc1ccc(OCC(=O)N2CCN(c3nc(N)nc4sc(-c5ccc(C)cc5)nc34)CC2)cc1 [Example 294, 1-(4-(5-amino-2-p-tolylthiazolo[5,4-d]pyrimidin-7-yl)piperazin-1-yl)-2-(4-methoxyphenoxy)ethanone] | 0.02 (≈ 0.0408 µM) | 20.6 (≈ 41.9 µM) | 0.43 (≈ 0.876 µM) | < 0.39 | < 0.02 | 0.63 (≈ 1.28 µM) | < 0.39 | < 0.02 | < 0.39 | > 50 | 5.26 (≈ 10.7 µM) |  | 29.1 (≈ 59.4 µM) | 1.82 (≈ 3.71 µM) | < 0.02 |
| COc1ccc(OCC(=O)N2CCN(c3nc(N)nc4sc(-c5ccc(F)cc5)nc34)CC2)cc1 [Example 234, 1-(4-(5-amino-2-(4-fluorophenyl)thiazolo[5,4-d]pyrimidin-7-yl)piperazin-1-yl)-2-(4-methoxyphenoxy)ethanone] |  | > 50 | 25.5 (≈ 51.6 µM) |  | 0.08 (≈ 0.162 µM) | 30.1 (≈ 60.9 µM) | < 0.39 | 0.04 (≈ 0.0809 µM) | 1.32 (≈ 2.67 µM) | > 50 | > 50 | > 50 | > 50 | 29.3 (≈ 59.2 µM) | 0.06 (≈ 0.121 µM) |
| Cc1ccc(CCc2nc3c(N4CCN(C(=O)COc5ccc(Cl)cc5)CC4)nc(N)nc3s2)cc1 [Example 260, 1-(4-(5-amino-2-(4-methylphenethyl)thiazolo[5,4-d]pyrimidin-7-yl)piperazin-1-yl)-2-(4-chlorophenoxy)ethanone] | > 50 | > 50 | > 50 | 2.46 (≈ 4.7 µM) | 13 (≈ 24.8 µM) | > 50 | 1.35 (≈ 2.58 µM) | > 50 | 27.9 (≈ 53.3 µM) | > 50 | > 50 | > 50 | > 50 | > 50 |  |
| COc1ccc(OCC(=O)N2CCN(c3nc(N)nc4sc(CCc5ccc(C)cc5)nc34)CC2)cc1 [Example 259, 1-(4-(5-amino-2-(4-methylphenethyl)thiazolo[5,4-d]pyrimidin-7-yl)piperazin-1-yl)-2-(4-methoxyphenoxy)ethanone] | 0.35 (≈ 0.675 µM) | > 50 | > 50 | 2.56 (≈ 4.94 µM) | 0.32 (≈ 0.617 µM) | > 50 | 1.52 (≈ 2.93 µM) | 0.41 (≈ 0.791 µM) | 18.3 (≈ 35.3 µM) | > 50 | > 50 |  | > 50 | > 50 | 0.48 (≈ 0.925 µM) |

From patent publication US9730944B2, “Antiviral activity of novel bicyclic heterocycles” (priority 2010, dated 2017)
